Molecules are shown by their SMILES.

T1 sequence (O60706 1-1549 isoform O60706-2): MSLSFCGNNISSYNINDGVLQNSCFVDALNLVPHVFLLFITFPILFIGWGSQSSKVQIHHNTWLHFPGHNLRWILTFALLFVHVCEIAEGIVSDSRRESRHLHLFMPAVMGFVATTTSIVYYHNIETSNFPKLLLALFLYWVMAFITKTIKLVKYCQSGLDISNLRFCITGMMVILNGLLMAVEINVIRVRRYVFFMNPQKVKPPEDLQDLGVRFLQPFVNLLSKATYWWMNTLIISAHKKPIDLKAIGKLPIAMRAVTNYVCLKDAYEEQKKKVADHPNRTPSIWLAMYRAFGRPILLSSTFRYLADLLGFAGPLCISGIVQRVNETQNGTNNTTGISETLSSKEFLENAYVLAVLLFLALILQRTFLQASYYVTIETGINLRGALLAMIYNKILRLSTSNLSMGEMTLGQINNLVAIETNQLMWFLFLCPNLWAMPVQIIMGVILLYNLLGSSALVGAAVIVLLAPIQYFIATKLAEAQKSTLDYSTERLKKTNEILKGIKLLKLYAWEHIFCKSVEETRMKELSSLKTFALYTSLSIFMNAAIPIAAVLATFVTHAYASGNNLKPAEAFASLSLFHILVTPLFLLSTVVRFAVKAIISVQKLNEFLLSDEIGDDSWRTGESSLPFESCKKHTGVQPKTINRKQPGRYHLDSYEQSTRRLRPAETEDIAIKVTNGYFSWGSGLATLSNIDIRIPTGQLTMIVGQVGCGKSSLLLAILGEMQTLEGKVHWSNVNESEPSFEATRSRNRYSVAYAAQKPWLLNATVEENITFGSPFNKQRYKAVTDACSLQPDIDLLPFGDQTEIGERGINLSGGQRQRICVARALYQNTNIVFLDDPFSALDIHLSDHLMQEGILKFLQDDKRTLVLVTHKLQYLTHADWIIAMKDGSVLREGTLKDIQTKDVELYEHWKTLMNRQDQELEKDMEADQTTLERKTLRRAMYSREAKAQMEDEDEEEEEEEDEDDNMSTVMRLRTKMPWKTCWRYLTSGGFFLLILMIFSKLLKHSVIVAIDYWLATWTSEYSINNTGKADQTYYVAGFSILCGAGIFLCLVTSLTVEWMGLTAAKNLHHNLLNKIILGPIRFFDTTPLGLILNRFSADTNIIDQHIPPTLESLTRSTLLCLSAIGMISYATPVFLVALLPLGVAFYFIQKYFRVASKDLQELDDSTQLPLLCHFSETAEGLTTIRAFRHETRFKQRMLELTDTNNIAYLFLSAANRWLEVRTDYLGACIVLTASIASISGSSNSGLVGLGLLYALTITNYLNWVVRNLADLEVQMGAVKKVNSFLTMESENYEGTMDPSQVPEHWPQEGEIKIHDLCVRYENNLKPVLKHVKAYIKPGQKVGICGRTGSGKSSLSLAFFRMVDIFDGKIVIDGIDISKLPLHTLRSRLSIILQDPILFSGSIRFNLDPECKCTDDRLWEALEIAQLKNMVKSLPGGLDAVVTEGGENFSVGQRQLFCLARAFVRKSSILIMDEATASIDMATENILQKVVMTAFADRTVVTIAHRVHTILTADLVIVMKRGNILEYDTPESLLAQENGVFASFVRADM
T1 sequence (Q14654 whole entry): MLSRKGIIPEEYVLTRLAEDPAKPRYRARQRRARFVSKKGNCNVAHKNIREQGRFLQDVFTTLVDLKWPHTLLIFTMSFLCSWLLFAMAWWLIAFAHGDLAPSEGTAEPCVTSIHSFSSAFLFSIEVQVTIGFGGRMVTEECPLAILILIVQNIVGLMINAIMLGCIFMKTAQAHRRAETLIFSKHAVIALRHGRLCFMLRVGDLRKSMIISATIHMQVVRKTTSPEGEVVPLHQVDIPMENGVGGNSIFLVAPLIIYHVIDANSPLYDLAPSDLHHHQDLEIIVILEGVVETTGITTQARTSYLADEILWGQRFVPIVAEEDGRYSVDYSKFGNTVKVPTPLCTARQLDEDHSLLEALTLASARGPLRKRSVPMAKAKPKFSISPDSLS

This assay concerns the target T1, KATP channels (Homo sapiens, UniProt O60706+Q14654).
T1 construct: TE671 human medulloblastoma cells were obtained from ATCC; host or cells: TE671 human medulloblastoma cells
The experiment in a line: Potassium Channel Assay (FLIPR membrane potential dye, TE671 cells). Format: cell-based. The following applies: percent response at 30 μM; TE671 human medulloblastoma cells; hyperpolarization seen as decrease in fluorescent intensity, room temperature. Details: key: Active: A compound was designated as active if it produced greater than or equal to 10% response at 30 μM; Inactive: A compound was designated as inactive if it produced less than 10% response at 30 μM. The method, then:
TE671 human medulloblastoma cells were obtained from ATCC and grown in Dulbecco's modified Eagle's medium (DMEM) supplemented with 10% fetal bovine serum, 100 U/ml penicillin and 100 U/ml streptomycine.
The day before testing, the cells were plated in black 96-well plates at 50 K/well. On the day of testing, the growth media was removed, then 100 μl of FLIPR buffer (20 mM HEPES, 120 mM NaCl, 2 mM KCl, 2 mM CaCl2, 1 mM MgCl2, 5 mM Glucose) and 100 μl of Membrane Potential Assay Dye (Molecular Devices) dissolved in FLIPR buffer were added to each well. The cells were incubated at room temperature for 15 to 30 min.
The effect of test compounds on KATP channels were evaluated on a fluorometric imaging plate reader (FLIPR, Molecular Devices) at room temperature. After a baseline period, 50 μl of 5× stock solution of test compound prepared in FLIPR buffer was added and fluorescent change was monitored for 3 minutes. After this reading, glyburide, a KATP channel blocker, was added to a final concentration of 5 μM to check the specificity of the test compound as a KATP channel openers. Hyperpolarization resulting from KATP channel opening was observed as a decrease in fluorescent intensity.
Representative compounds of the present invention were tested according to the procedure described above, with results as listed in Table BIO1 below. Test compound activity was determined as the percent. A compound was designated as active if it produced greater than or equal to 10% response at 30 μM.
For the compound `O=C1CCCC(O)=C1N(C1=C(O)CCCC1=O)c1ccc(F)c(F)c1` [compound 2], the Response result is reported as “Active”. For `O=C1CCCC(O)=C1N(C1=C(O)CCCC1=O)c1cccc(I)c1` [compound 3], the Response entry was “Active”. Turning to `N#Cc1cccc(N(C2=C(O)CCC2=O)C2=C(O)CCC2=O)c1` [compound 5], the Response entry was “Active”.
